Reference: patent publication US7402610B2, “Carbonyl compound containing long-chain branched alkyl group” (Idemitsu Kosan Co., Ltd., priority 2004, dated 2008)

Key:
Assay type in all cases: physicochemical
[1] = Oxidation stability test, JIS K2514, kinematic viscosity before and after heating; conditions: for Change in kinematic viscosity (at 40° C.) / Change in kinematic viscosity (at 100° C.): after/before heating at 140° C. for 24 hours
Description: The oxidation stability of the above synthesized triester was tested and the viscosity before and after testing was measured. The oxidation stability test was conducted in accordance with JIS K2514, wherein the kinematic viscosity was measured at 40° C. and 100° C. after heating for 24 hours at 140° C. in the presence of copper and steel catalysts. The compounds showing a small change (increase) in kinematic viscosity were regarded as excelling in oxidation stability.

[2] = Loss on heat (plasticizer evaluation), JIS K6751-4; conditions: heating at 125° C. for three hours
Description: As the plasticizer evaluation, loss on heat was evaluated. In accordance with JIS K6751-4, the decrease in amount after heating at 125° C. for three hours was used as the heating loss.

[3] = Low temperature fluidity on cooling; conditions: cooled to −20° C.
Pour point, JIS K2269 = assay: Pour point, JIS K2269
Description: The pour point of 3-octyl-tridecanoic acid was measured in accordance with JIS K2269. The pour point was determined to be −37° C. On the other hand, the pour point of a similar compound isostearic acid (2-n-heptylundecanoic acid) was −20° C. (“14303 Chemical Products”, The Chemical Daily Co., Ltd.). Another similar compound 2-octyldodecanoic acid was a solid having a melting point of 35° C.
The pour point which indicates the characteristics of the ester of the invention was measured in accordance with JIS K2269.

[4] = after heating at 140° C. for 24 hours, copper and steel catalysts

Row | Compound | Kinematic viscosity at 40° C. [1, 4] | Change in kinematic viscosity (at 40° C.) [1] | Kinematic viscosity at 40° C. ([1]; before heating) | Decrease in amount after heating (%) [2] | Fluidity when cooled [3] | Pour point (Pour point, JIS K2269) | Kinematic viscosity at 100° C. [1, 4] | Change in kinematic viscosity (at 100° C.) [1] | Kinematic viscosity at 100° C. ([1]; before heating)
1 | CCCCCCCC/C=C\CCCCCCCC(=O)OCCCCCCCC [Comparative Example 4, octyl oleate, reference compound] | 19.89 mm^2/s | 1.29 | 15.33 mm^2/s | 0.30% |  |  |  |  | 
2 | CCCCCCCCCCC(CCCCCCCC)CC(=O)OC (centres unmarked) [Example 1, methyl 3-octyl-tridecanoate] |  |  |  |  | did not decrease |  |  |  | 
3 | CCCCCCCCCCC(CCCCCCCC)CC(=O)O (centres unmarked) [Example 2, 3-octyl-tridecanoic acid] |  |  |  |  | did not decrease | −37 °C |  |  | 
4 | CCCCCCCCCCC(CC=O)CCCCCCCC (centres unmarked) [Example 3, 3-octyl-tridecanal] |  |  |  |  | has the fluidity |  |  |  | 
5 | CCCCCCCCCCC(CCCCCCCC)CC(=O)OCCCCCCCC (centres unmarked) [Example 7, octyl 3-octyl-tridecanoate] | 21.74 mm^2/s | 1.04 | 20.08 mm^2/s | 0.10% |  |  |  |  | 
6 | trimethylolpropane tri(3-octyl-tridecanoate) [Example 4] | 67.28 mm^2/s | 1.07 | 62.76 mm^2/s |  |  | −50 or less ° C. | 10.24 mm^2/s | 1.03 | 9.95 mm^2/s
7 | trimethylolpropane trioleate [Comparative Example 2, reference compound] | 60.91 mm^2/s | 1.27 | 47.96 mm^2/s |  |  | −47.5 °C | 11.24 mm^2/s | 1.16 | 9.66 mm^2/s
